Values quoted from earlier work, collected in US7723036B2, “Assessing response to anti-CD20 therapy by genotyping C1q components” (The University of Iowa Research Foundation, priority 2005, dated 2010).
Counter-ions that a name gives are not always drawn.

Assays:
[1] = in vivo
[2] = oral radioactive lomustine 30 mg/m^2 to 100 mg/m^2; within 24 hours
[3] = in vivo; remark: listed apart in the source

| SMILES | oral absorption (in words) [1] | radioactivity given excreted in the form of degradation products [2] | administered dose recovered in the feces after biliary excretion [3] |
| --- | --- | --- | --- |
| O=C(O)CCCc1ccc(N(CCCl)CCCl)cc1 [Chlorambucil, 4-(bis(2-chlorethyl)amino) benzenebutanoic acid] | rapidly and completely absorbed |  |  |
| N.N.[Cl][Pt][Cl] [Cisplatin] | not absorbed orally |  |  |
| COc1cccc2c1C(=O)c1c(O)c3c(c(O)c1C2=O)C[C@@](O)(C(C)=O)C[C@@H]3O[C@H]1C[C@H](N)[C@H](O)[C@H](C)O1 [Daunorubicin, 5,12-Naphthacenedione, (8S-cis)-8-acetyl-10-((3-amino-2,3,6-trideoxy-a-L-lyxo-hexanopyranosyl)oxy)-7,8,9,10-tetrahydro-6,8,11-trihydroxy-10-methoxy-, hydrochloride] | poor |  |  |
| COc1cccc2c1C(=O)c1c(O)c3c(c(O)c1C2=O)C[C@@](O)(C(=O)CO)C[C@@H]3O[C@H]1C[C@H](N)[C@H](O)[C@H](C)O1 [Doxorubicin, 5,12-Naphthacenedione, (8s-cis)-10-((3-amino-2,3,6-trideoxy-a-L-lyxo-hexopyranosyl)oxy)-7,8,9,10-tetrahydro-6,8,11-trihydroxy-8-(hydroxyacetyl)-1-methoxy-hydrochloride] | absorbed poorly |  |  |
| O=NN(CCCl)C(=O)NC1CCCCC1 [Lomustine, 1-(2-chloro-ethyl)-3-cyclohexyl-1 nitrosourea] |  | about half |  |
| CC[C@]1(O)C[C@@H]2CN(CCc3c([nH]c4ccccc34)[C@@](C(=O)OC)(c3cc4c(cc3OC)N(C)[C@H]3[C@@](O)(C(=O)OC)[C@H](OC(C)=O)[C@]5(CC)C=CCN6CC[C@]43[C@@H]65)C2)C1 [Vinblastine] | Unpredictable absorption |  | about 10% |
| CC[C@]1(O)C[C@H]2CN(CCc3c([nH]c4ccccc34)[C@@](C(=O)OC)(c3cc4c(cc3OC)N(C=O)[C@H]3[C@@](O)(C(=O)OC)[C@H](OC(C)=O)[C@]5(CC)C=CCN6CC[C@]43[C@@H]65)C2)C1 [Vincristine] | Unpredictable absorption |  |  |
